Assay results from PubChem BioAssay (NCI).
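In this assay, cells in 96-well plates receive the compound at five concentrations for 48 hours. Endpoints are linearly interpolated between the surrounding concentrations. GI50 marks 50% less growth. TGI: concentration producing complete growth inhibition.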

Key:
Test in all cases: inhibition of tumour cell growth, NCI panel, 48 h
HCT-116 colon = test system: HCT-116 colon
BT-549 breast = test system: BT-549 breast
SF-268 CNS = test system: SF-268 CNS
NCI-H226 lung = test system: NCI-H226 lung
HOP-92 NSCLC = test system: HOP-92 NSCLC
SR leukemia = test system: SR leukemia
ACHN renal = test system: ACHN renal
SW-620 colon = test system: SW-620 colon
OVCAR-3 ovarian = test system: OVCAR-3 ovarian
HT29 colon = test system: HT29 colon
HCC-2998 colon = test system: HCC-2998 colon
OVCAR-8 ovarian = test system: OVCAR-8 ovarian
MDA-MB-435 = test system: MDA-MB-435
SK-OV-3 ovarian = test system: SK-OV-3 ovarian
786-0 renal = test system: 786-0 renal
SK-MEL-5 melanoma = test system: SK-MEL-5 melanoma
SN12C renal = test system: SN12C renal
T-47D breast = test system: T-47D breast
OVCAR-4 ovarian = test system: OVCAR-4 ovarian
RPMI-8226 leukemia = test system: RPMI-8226 leukemia
HOP-62 NSCLC = test system: HOP-62 NSCLC
CCRF-CEM leukemia = test system: CCRF-CEM leukemia
TK-10 renal = test system: TK-10 renal
SK-MEL-28 melanoma = test system: SK-MEL-28 melanoma
KM12 colon = test system: KM12 colon
MOLT-4 leukemia = test system: MOLT-4 leukemia
HS 578T breast = test system: HS 578T breast
LOX IMVI melanoma = test system: LOX IMVI melanoma
SK-MEL-2 melanoma = test system: SK-MEL-2 melanoma
NCI-H23 lung = test system: NCI-H23 lung
SF-539 CNS = test system: SF-539 CNS
M14 melanoma = test system: M14 melanoma
EKVX NSCLC = test system: EKVX NSCLC
SNB-75 CNS = test system: SNB-75 CNS
A498 renal = test system: A498 renal
MDA-MB-231 breast = test system: MDA-MB-231 breast
NCI-H460 lung = test system: NCI-H460 lung
CAKI-1 renal = test system: CAKI-1 renal
SNB-19 CNS = test system: SNB-19 CNS
UACC-257 melanoma = test system: UACC-257 melanoma
COLO 205 colon = test system: COLO 205 colon
UACC-62 melanoma = test system: UACC-62 melanoma
PC-3 prostate = test system: PC-3 prostate
MALME-3M melanoma = test system: MALME-3M melanoma
SF-295 CNS = test system: SF-295 CNS
HCT-15 colon = test system: HCT-15 colon
DU-145 prostate = test system: DU-145 prostate
NCI/ADR-RES ovarian = test system: NCI/ADR-RES ovarian
IGROV1 ovarian = test system: IGROV1 ovarian
OVCAR-5 ovarian = test system: OVCAR-5 ovarian
U251 CNS = test system: U251 CNS
RXF 393 renal = test system: RXF 393 renal
MCF7 breast = test system: MCF7 breast
NCI-H522 lung = test system: NCI-H522 lung
A549 NSCLC = test system: A549 NSCLC
HL-60(TB) leukemia = test system: HL-60(TB) leukemia
UO-31 renal = test system: UO-31 renal
K-562 leukemia = test system: K-562 leukemia

Cc1ccc(NC(=O)Cn2c(Br)nc3c2c(=O)n(C)c(=O)n3C)cc1
GI50 (HCT-116 colon): 2430 nM
TGI (HCT-116 colon): 8.02 µM
GI50 (BT-549 breast): 11.1 µM
TGI (BT-549 breast): 24 µM
GI50 (SF-268 CNS): 8.3 µM
TGI (SF-268 CNS): 22.8 µM
GI50 (NCI-H226 lung): 2070 nM
TGI (NCI-H226 lung): 4.76 µM
GI50 (HOP-92 NSCLC): 1900 nM
TGI (HOP-92 NSCLC): 5.29 µM
GI50 (SR leukemia): 8.96 µM
TGI (SR leukemia): 35.5 µM
GI50 (ACHN renal): 2800 nM
TGI (ACHN renal): 8.12 µM
GI50 (SW-620 colon): 13.5 µM
TGI (SW-620 colon): 33.2 µM
GI50 (OVCAR-3 ovarian): 2310 nM
TGI (OVCAR-3 ovarian): 5.35 µM
GI50 (HT29 colon): 13.8 µM
TGI (HT29 colon): 51.5 µM
GI50 (HCC-2998 colon): 15.5 µM
TGI (HCC-2998 colon): 28.9 µM
GI50 (OVCAR-8 ovarian): 4.89 µM
TGI (OVCAR-8 ovarian): 21.6 µM
GI50 (MDA-MB-435): 9.32 µM
TGI (MDA-MB-435): 21.2 µM
GI50 (SK-OV-3 ovarian): 2150 nM
TGI (SK-OV-3 ovarian): 4.52 µM
GI50 (786-0 renal): 2320 nM
TGI (786-0 renal): 5.68 µM
GI50 (SK-MEL-5 melanoma): 2310 nM
TGI (SK-MEL-5 melanoma): 5.57 µM
GI50 (SN12C renal): 3.16 µM
TGI (SN12C renal): 10.8 µM
GI50 (T-47D breast): 3.05 µM
TGI (T-47D breast): 14 µM
GI50 (OVCAR-4 ovarian): 2100 nM
TGI (OVCAR-4 ovarian): 4.57 µM
GI50 (RPMI-8226 leukemia): 3.25 µM
TGI (RPMI-8226 leukemia): 19.4 µM
GI50 (HOP-62 NSCLC): 2830 nM
TGI (HOP-62 NSCLC): 9.7 µM
GI50 (CCRF-CEM leukemia): 17.3 µM
TGI (CCRF-CEM leukemia): 65.8 µM
GI50 (TK-10 renal): 3.2 µM
TGI (TK-10 renal): 9.93 µM
GI50 (SK-MEL-28 melanoma): 11.4 µM
TGI (SK-MEL-28 melanoma): 23.5 µM
GI50 (KM12 colon): 13.6 µM
TGI (KM12 colon): 29.9 µM
GI50 (MOLT-4 leukemia): 27.9 µM
TGI (MOLT-4 leukemia): > 100 µM
GI50 (HS 578T breast): 3.43 µM
TGI (HS 578T breast): 14.9 µM
GI50 (LOX IMVI melanoma): 6.27 µM
TGI (LOX IMVI melanoma): 19.4 µM
GI50 (SK-MEL-2 melanoma): 13.4 µM
TGI (SK-MEL-2 melanoma): 27.4 µM
GI50 (NCI-H23 lung): 6.31 µM
TGI (NCI-H23 lung): 22 µM
GI50 (SF-539 CNS): 1940 nM
TGI (SF-539 CNS): 4.21 µM
GI50 (M14 melanoma): 5.98 µM
TGI (M14 melanoma): 19.2 µM
GI50 (EKVX NSCLC): 10.7 µM
TGI (EKVX NSCLC): 25.9 µM
GI50 (SNB-75 CNS): 1430 nM
TGI (SNB-75 CNS): 3.95 µM
GI50 (A498 renal): 2010 nM
TGI (A498 renal): 5.87 µM
GI50 (MDA-MB-231 breast): 2440 nM
TGI (MDA-MB-231 breast): 6.42 µM
GI50 (NCI-H460 lung): 3.39 µM
TGI (NCI-H460 lung): 11.6 µM
GI50 (CAKI-1 renal): 4.32 µM
TGI (CAKI-1 renal): 16.3 µM
GI50 (SNB-19 CNS): 7.92 µM
TGI (SNB-19 CNS): 23.7 µM
GI50 (UACC-257 melanoma): 13.9 µM
TGI (UACC-257 melanoma): 28.8 µM
GI50 (COLO 205 colon): 5.57 µM
TGI (COLO 205 colon): 19.3 µM
GI50 (UACC-62 melanoma): 11.1 µM
TGI (UACC-62 melanoma): 24.2 µM
GI50 (PC-3 prostate): 11.5 µM
TGI (PC-3 prostate): 24.1 µM
GI50 (MALME-3M melanoma): 2330 nM
TGI (MALME-3M melanoma): 7.01 µM
GI50 (SF-295 CNS): 9.84 µM
TGI (SF-295 CNS): 21.8 µM
GI50 (HCT-15 colon): 12.2 µM
TGI (HCT-15 colon): 29.3 µM
GI50 (DU-145 prostate): 4.64 µM
TGI (DU-145 prostate): 16.4 µM
GI50 (NCI/ADR-RES ovarian): 9.75 µM
TGI (NCI/ADR-RES ovarian): 29.3 µM
GI50 (IGROV1 ovarian): 5 µM
TGI (IGROV1 ovarian): 17.4 µM
GI50 (OVCAR-5 ovarian): 3.69 µM
TGI (OVCAR-5 ovarian): 13.9 µM
GI50 (U251 CNS): 2260 nM
TGI (U251 CNS): 5.75 µM
GI50 (RXF 393 renal): 2290 nM
TGI (RXF 393 renal): 6.28 µM
GI50 (MCF7 breast): 3.91 µM
TGI (MCF7 breast): 18.3 µM
GI50 (NCI-H522 lung): 9.27 µM
TGI (NCI-H522 lung): 36.3 µM
GI50 (A549 NSCLC): 5.61 µM
TGI (A549 NSCLC): 24.5 µM
GI50 (HL-60(TB) leukemia): > 100 µM
TGI (HL-60(TB) leukemia): > 100 µM
GI50 (UO-31 renal): 2130 nM
TGI (UO-31 renal): 6 µM
GI50 (K-562 leukemia): 18.5 µM
TGI (K-562 leukemia): 74.5 µM
